Assay results from patent US8187826B2, “Quantitative analysis of in vivo mutation at the Pig-A locus” (Litron Laboratories, Ltd., priority 2008, dated 2012).

Key:
reticulocytes [1] = experiment: frequency of reticulocytes (% RET) in peripheral blood, flow cytometry, rats; type: in vivo; conditions: male Wistar rats, FIG. 5A
Text: These in vivo experiments utilized naïve rats and focused on the development of simple and reproducible methods for staining and analyzing peripheral blood RBCs and RETs for the GPI anchor-deficient phenotype. As reported elsewhere, it was confirmed that the GPI-anchored protein CD59 is highly and stably expressed on RBCs throughout their lifespan in circulation (Hernández-Campo et al., “Quantitative Analysis of the Expression of Glycosylphosphatidylinositol-Anchored Proteins During the Maturation of Different Hematopoietic Cell Compartments of Normal Bone Marrow,” Cytometry 72B:34-42 (2007), which is hereby incorporated by reference in its entirety). […] A second fluorescent reagent, SYTO® 13 dye, was chosen to differentially stain NCEs, RETs, and leukocytes. […] Secondly, it provided better fluorescent resolution between NCEs, RETs and blood leukocytes. The separation of these latter two populations is particularly important, because not all leukocytes express CD59, and these cells can therefore be mistaken for GPI anchor-deficient RBCs if they are not excluded from analysis. […]
The prior three-color staining strategy outlined above has been described in Bryce et al., “In vivo mutation assay based on the endogenous Pig-a locus”, Environ. […] Samples processed in this manner were evaluated with and without the anti-platelet antibody, and virtually identical values were consistently obtained. […]

[2] = system: GPI anchor-deficient RBCs (Pig-A locus); experiment: Pig-A mutation assay: frequency of GPI anchor-deficient (mutant phenotype) RBCs, rats; type: in vivo, Wistar rats
Text: (§1) These in vivo experiments utilized naïve rats and focused on the development of simple and reproducible methods for staining and analyzing peripheral blood RBCs and RETs for the GPI anchor-deficient phenotype. As reported elsewhere, it was confirmed that the GPI-anchored protein CD59 is highly and stably expressed on RBCs throughout their lifespan in circulation (Hernández-Campo et al., “Quantitative Analysis of the Expression of Glycosylphosphatidylinositol-Anchored Proteins During the Maturation of Different Hematopoietic Cell Compartments of Normal Bone Marrow,” Cytometry 72B:34-42 (2007), which is hereby incorporated by reference in its entirety). […] A second fluorescent reagent, SYTO® 13 dye, was chosen to differentially stain NCEs, RETs, and leukocytes. […] Secondly, it provided better fluorescent resolution between NCEs, RETs and blood leukocytes. The separation of these latter two populations is particularly important, because not all leukocytes express CD59, and these cells can therefore be mistaken for GPI anchor-deficient RBCs if they are not excluded from analysis. Early staining trials also included a third fluorescent reagent, anti-platelet antibody (biotinylated anti-CD61 plus streptavidin-Cy5-PE), which was added to positively identify platelets and prevent platelets from interfering with the RBC-centric analyses.
(§2) The prior three-color staining strategy outlined above has been described in Bryce et al., “In vivo mutation assay based on the endogenous Pig-a locus”, Environ. Molec. Mutagen. 49:256-264 (2008) as well as U.S. Patent Application Publ. […] Samples processed in this manner were evaluated with and without the anti-platelet antibody, and virtually identical values were consistently obtained. […]
(§3) The thresholding technique is based on the fact that the vast majority of Lympholyte® processed blood cells are mature RBCs. […] In this case, it is possible to set the threshold parameter to the nucleic acid dye-associated fluorescence channel (i.e., FL1 for SYTO® 13), as opposed to the more common forward scatter trigger. […]

[3] = system: GPI anchor-deficient RETs (Pig-A locus); experiment: Pig-A mutation assay: frequency of GPI anchor-deficient (mutant phenotype) RETs, rats; type: in vivo, Wistar rats
Text: as §1, §2, §3

reticulocytes [4] = experiment: frequency of reticulocytes (% RET) in peripheral blood, flow cytometry, mice; type: in vivo; conditions: male CD-1 mice, 40 mg/kg/day oral gavage Days 1-3, FIG. 8A
Protocol: (§4) The cross-species potential of this assay is illustrated by this example, whereby male CD-1 mice were treated on three consecutive days (Day 1, 2 and 3) with N-ethyl-N-nitrosourea (ENU) via oral gavage. The dose levels were 0 or 40 mg/kg/day. Blood harvests occurred on Days 4, 15, 30, 45 and 90 (n=5 per time point per dose). Whereas the rat experiments described in Examples 2-4 above were based on serial blood draws, the mouse experiments were not. Rather, each mouse provided only one blood specimen, thereby requiring like-treated groups of animals to generate the data for each time point studied. This was done to eliminate the possible confounding effect that repeat-blood sampling may have had on the results given the low total blood volume associated with this particular small animal model.

[5] = system: GPI anchor-deficient RBCs (Pig-A locus); experiment: Pig-A mutation assay: frequency of mutant phenotype RBCs, mice; type: in vivo; conditions: male CD-1 mice, 40 mg/kg/day oral gavage Days 1-3, FIG. 8B
Protocol: as §4

[6] = system: GPI anchor-deficient RETs (Pig-A locus); experiment: Pig-A mutation assay: frequency of mutant phenotype RETs, mice; type: in vivo; conditions: male CD-1 mice, 40 mg/kg/day oral gavage Days 1-3, FIG. 8C
Protocol: as §4

**Q.** How did the “frequency of reticulocytes (% RET)” value (reticulocytes [1]; 20 or 40 mg/kg/day oral gavage Days 1-3, vs vehicle control) turn out when `CCN(N=O)C(N)=O` [ENU, N-ethyl-N-nitrosourea] was run?
**A.** The value was “mean % RET are reduced in a dose-dependent manner”.

**Q.** And the “frequency of reticulocytes (% RET), rebound effect” value (reticulocytes [1]; high dose group (40 mg/kg/day oral gavage Days 1-3), vs control values)?
**A.** The value was ““overshoots” the control values”.

**Q.** And the “frequency of mutant phenotype RBCs” value ([2]; male Wistar rats, 1, 5, 10 or 15 mg/kg/day oral gavage on 14 consecutive days, blood Day 23, FIG. 7A)?
**A.** Its value is “very robust, dose-related increase in mutant cells”.

**Q.** What about the “frequency of mutant phenotype (GPI anchor-deficient) RBCs” value ([2]; male Wistar rats, 20 or 40 mg/kg/day oral gavage Days 1-3, Day 15 through Day 90, FIG. 5B) of the same molecule?
**A.** The value was “Robust, dose-related increases in mutant cell frequency”.

**Q.** And the “day on which maximal mutant RBC frequency is reached” value ([2]; male Wistar rats, 20 or 40 mg/kg/day oral gavage Days 1-3, plateau thereafter, FIG. 5B)?
**A.** The value was at most 45 days.

**Q.** And the “frequency of mutant phenotype RETs” value ([3]; male Wistar rats, 1, 5, 10 or 15 mg/kg/day oral gavage on 14 consecutive days, blood Day 23, FIG. 7B)?
**A.** Its value is “very robust, dose-related increase in mutant cells”.

**Q.** And the “day on which maximal or near-maximal mutant RET frequency is reached” value ([3]; male Wistar rats, 20 or 40 mg/kg/day oral gavage Days 1-3, FIG. 5C)?
**A.** Its value is 15 days.

**Q.** What about the “frequency of mutant phenotype (GPI anchor-deficient) RETs” value ([3]; male Wistar rats, 20 or 40 mg/kg/day oral gavage Days 1-3, evident by Day 15, FIG. 5C) of the same molecule?
**A.** Its value is “Robust, dose-related increases in mutant cell frequency”.

**Q.** What about the “frequency of reticulocytes (% RET)” value (reticulocytes [4]; Day 4) of the same molecule?
**A.** The value was “significantly reduced”.

**Q.** And the “frequency of reticulocytes (% RET), rebound effect” value (reticulocytes [4]; Day 15, vs control values)?
**A.** Its value is ““overshoots” the control values”.

**Q.** And the “frequency of mutant phenotype RBCs” value ([5]; by Day 15)?
**A.** The value was “increased mutant cell frequencies”.

**Q.** What about the “day on which maximum mutant RBC frequency is apparent” value ([5]; stable thereafter through Day 90) of the same molecule?
**A.** The value was 30 days.

**Q.** What about the “frequency of mutant phenotype RETs” value ([6]; Day 15) of the same molecule?
**A.** Its value is “greatly elevated”.

**Q.** What about the “frequency of mutant phenotype RETs” value ([6]; through Day 90) of the same molecule?
**A.** The value was “Robust increases in mutant cell frequency”.
